Experimental data as given in ChEMBL document CHEMBL1154851, “Synthesis, antibacterial and antifungal activities of 6,5 fused steroidal oxazoles in cholestane series” (2010).
Values after ≈ are worked out from the molar mass of the structure shown.

How the values were obtained:
Pseudomonas aeruginosa [1] = experiment: Antimicrobial activity against Pseudomonas aeruginosa after 18 hrs by macrodilution test; type: functional
Nakaseomyces glabratus [2] = experiment: Antimicrobial activity against Candida glabrata at 100 ug/ml after 48 hrs by disk diffusion method; type: functional; conditions: read-out: DIZ
Fusarium oxysporum [3] = experiment: Antimicrobial activity against Fusarium oxysporum at 100 ug/ml after 48 hrs by disk diffusion method; type: functional; conditions: read-out: DIZ
Bacillus subtilis [4] = experiment: Antimicrobial activity against Bacillus subtilis after 18 hrs by macrodilution test; type: functional
Pseudomonas aeruginosa [5] = experiment: Antimicrobial activity against Pseudomonas aeruginosa after 18 hrs by disk diffusion method; type: functional
Salmonella enterica [6] = experiment: Antimicrobial activity against Salmonella Typhimurium after 18 hrs by macrodilution test; type: functional, Salmonella enterica subsp. enterica serovar Typhimurium
Staphylococcus aureus [7] = experiment: Antimicrobial activity against Staphylococcus aureus after 18 hrs by macrodilution test; type: functional
Escherichia coli [8] = experiment: Antimicrobial activity against Escherichia coli after 18 hrs by disk diffusion method; type: functional
Bacillus subtilis [9] = experiment: Antimicrobial activity against Bacillus subtilis after 18 hrs by disk diffusion method; type: functional
Escherichia coli [10] = experiment: Antimicrobial activity against Escherichia coli after 18 hrs by macrodilution test; type: functional
Penicillium [11] = experiment: Antimicrobial activity against Penicillium at 100 ug/ml after 48 hrs by disk diffusion method; type: functional; conditions: read-out: DIZ
Staphylococcus aureus [12] = experiment: Antimicrobial activity against Staphylococcus aureus after 18 hrs by disk diffusion method; type: functional
Streptococcus pyogenes [13] = experiment: Antimicrobial activity against Streptococcus pyogenes after 18 hrs by disk diffusion method; type: functional
Aspergillus niger [14] = experiment: Antimicrobial activity against Aspergillus niger at 100 ug/ml after 48 hrs by disk diffusion method; type: functional; conditions: read-out: DIZ
Salmonella enterica [15] = experiment: Antimicrobial activity against Salmonella Typhimurium after 18 hrs by disk diffusion method; type: functional, Salmonella enterica subsp. enterica serovar Typhimurium
Candida albicans [16] = experiment: Antimicrobial activity against Candida albicans at 100 ug/ml after 48 hrs by disk diffusion method; type: functional; conditions: read-out: DIZ
Streptococcus pyogenes [17] = experiment: Antimicrobial activity against Streptococcus pyogenes after 18 hrs by macrodilution test; type: functional
Aspergillus niger [18] = experiment: Antimicrobial activity against Aspergillus niger at 30 ug after 48 hrs by disk diffusion method; type: functional, organism-based
Fusarium oxysporum [19] = experiment: Antimicrobial activity against Fusarium oxysporum at 30 ug after 48 hrs by disk diffusion method; type: functional, organism-based
Penicillium [20] = experiment: Antimicrobial activity against Penicillium at 30 ug after 48 hrs by disk diffusion method; type: functional, organism-based
Candida albicans [21] = experiment: Antimicrobial activity against Candida albicans at 30 ug after 48 hrs by disk diffusion method; type: functional, organism-based
Nakaseomyces glabratus [22] = experiment: Antimicrobial activity against Candida glabrata at 30 ug after 48 hrs by disk diffusion method; type: functional, organism-based

Molecule | MIC (Pseudomonas aeruginosa [1]) | zone of inhibition at 100 µg/mL (Nakaseomyces glabratus [2]) | zone of inhibition at 100 µg/mL (Fusarium oxysporum [3]) | MIC (Bacillus subtilis [4]) | inhibition zone (IZ) (Pseudomonas aeruginosa [5]) | MIC (Salmonella enterica [6]) | MIC (Staphylococcus aureus [7]) | inhibition zone (IZ) (Escherichia coli [8]) | inhibition zone (IZ) (Bacillus subtilis [9]) | MIC (Escherichia coli [10]) | zone of inhibition at 100 µg/mL (Penicillium [11]) | inhibition zone (IZ) (Staphylococcus aureus [12]) | inhibition zone (IZ) (Streptococcus pyogenes [13]) | zone of inhibition at 100 µg/mL (Aspergillus niger [14]) | inhibition zone (IZ) (Salmonella enterica [15]) | zone of inhibition at 100 µg/mL (Candida albicans [16]) | MIC (Streptococcus pyogenes [17]) | further results
CC(C)CCC[C@@H](C)[C@H]1CC[C@H]2[C@@H]3C=C4N=C(N)O[C@@]45CCCC[C@]5(C)[C@H]3CC[C@]12C | 128 µg/mL (≈ 300 µM) | 9.2 mm | 10.1 mm | 128 µg/mL (≈ 300 µM) | 13.5 mm | 128 µg/mL (≈ 300 µM) | 128 µg/mL (≈ 300 µM) | 13.1 mm | 12.1 mm | 256 µg/mL (≈ 600 µM) | 14.5 mm | 10.8 mm | 11.2 mm | 10.1 mm | 11.5 mm | 19.1 mm | 256 µg/mL (≈ 600 µM) | –
CC(=O)O[C@H]1CC[C@]2(C)[C@H]3CC[C@]4(C)[C@@H]([C@H](C)CCCC(C)C)CC[C@H]4[C@@H]3C=C3N=C(N)O[C@@]32C1 | 64 µg/mL (≈ 132 µM) | 10.1 mm | 12.1 mm | 32 µg/mL (≈ 66 µM) | 15 mm | 128 µg/mL (≈ 264 µM) | 128 µg/mL (≈ 264 µM) | 14.1 mm | 13.1 mm | 128 µg/mL (≈ 264 µM) | 15.1 mm | 12.8 mm | 12.5 mm | 11.2 mm | 13.2 mm | 20.1 mm | 128 µg/mL (≈ 264 µM) | –
CC(C)CCC[C@@H](C)[C@H]1CC[C@H]2[C@@H]3C=C4N=C(N)O[C@@]45C[C@@H](Cl)CC[C@]5(C)[C@H]3CC[C@]12C | 64 µg/mL (≈ 139 µM) | 15.2 mm | 13.1 mm | 64 µg/mL (≈ 139 µM) | 16.5 mm | 64 µg/mL (≈ 139 µM) | 64 µg/mL (≈ 139 µM) | 16.1 mm | 15.2 mm | 128 µg/mL (≈ 278 µM) | 16.2 mm | 15.1 mm | 15.1 mm | 12.5 mm | 14.1 mm | 21.5 mm | 128 µg/mL (≈ 278 µM) | –
NYSTATIN | – | – | – | – | – | – | – | – | – | – | – | – | – | – | – | – | – | inhibition zone (IZ) (Aspergillus niger [18]): 19.5 mm; inhibition zone (IZ) (Fusarium oxysporum [19]): 19.5 mm; inhibition zone (IZ) (Penicillium [20]): 24.5 mm; inhibition zone (IZ) (Candida albicans [21]): 29 mm; inhibition zone (IZ) (Nakaseomyces glabratus [22]): 29 mm
O=C(N[C@H](CO)[C@H](O)c1ccc([N+](=O)[O-])cc1)C(Cl)Cl [CHLORAMPHENICOL] | 32 µg/mL (≈ 99 µM) | – | – | 32 µg/mL (≈ 99 µM) | 17.1 mm | 32 µg/mL (≈ 99 µM) | 32 µg/mL (≈ 99 µM) | 20 mm | 26.8 mm | 32 µg/mL (≈ 99 µM) | – | 21 mm | 22.4 mm | – | 25.2 mm | – | 32 µg/mL (≈ 99 µM) | –
